Laboratory results published in patent US12428406B2 (PMV Pharmaceuticals, Inc., priority 2019, dated 2025).

Biological target: T1, p53 Y220C (Homo sapiens, UniProt P04637, Y220C)
T1 construct: The recombinant protein was a truncation mutant containing only amino acids 94-312 of p53; made in house; host or cells: E. coli
Experiment: In vitro DNA binding activity assay (HTRF / TR-FRET): stabilization of p53 Y220C and increase of its DNA binding activity
Assay type: biochemical
Conditions: recombinant His-tagged p53 Y220C DNA binding domain (aa 94-312), biotin-labeled consensus DNA, incubated at 27° C. or 29° C. for 60 min
Procedure, shortened: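 Stabilization of the mutant is inferred from increased binding of His-tagged p53 Y220C to a biotin-labeled consensus DNA, detected by HTRF with europium-streptavidin and APC-anti-His antibody. The concentration giving a 50% rise over compound-free binding is reported as SC150.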

T1 sequence (P04637 94-312, change not shown): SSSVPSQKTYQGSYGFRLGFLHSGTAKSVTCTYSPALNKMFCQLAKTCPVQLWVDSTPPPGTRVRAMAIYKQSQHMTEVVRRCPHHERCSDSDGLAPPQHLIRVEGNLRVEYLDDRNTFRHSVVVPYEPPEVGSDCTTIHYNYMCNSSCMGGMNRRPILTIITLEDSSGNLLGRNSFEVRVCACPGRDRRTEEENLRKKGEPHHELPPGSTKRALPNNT

Compound | SC150 (concentration of the compound required to increase the DNA binding activity by 50%)
COc1cc(S(C)(=O)=O)ccc1NCC#Cc1cc2c(N[C@H]3CC[C@@H](N4CC5CC(C4)O5)CC3)cccc2n1CC(F)(F)F [Compound 399A, 2-{3-[(4-methanesulfonyl-2-methoxyphenyl)amino]prop-1-yn-1-yl}-N-[(1S,4S)-4-{6-oxa-3-azabicyclo[3.1.1]heptan-3-yl}cyclohexyl]-1-(2,2,2-trifluoroethyl)-1H-indol-4-amine] | + (+ = 0 μM ≤ SC150 < 0.05 μM)
COc1cc(S(N)(=O)=O)ccc1NCC#Cc1cc2c(NC3CCN(CC(C)OC(C)=O)CC3)cccc2n1CC(F)(F)F (stereo not drawn) [Compound 599A, 1-{4-[(2-{3-[(2-methoxy-4-sulfamoylphenyl)amino]prop-1-yn-1-yl}-1-(2,2,2-trifluoroethyl)-1H-indol-4-yl)amino]piperidin-1-yl}propan-2-yl acetate] | + (+ = 0 μM ≤ SC150 < 0.05 μM)
CNC(=O)c1ccc(NCC#Cc2cc3c(NC4CCN(CC5COC(=O)O5)CC4)cccc3n2CC(F)(F)F)c(OC)c1 (stereo not drawn) [Compound 762A, 3-methoxy-N-methyl-4-({3-[4-({1-[(2-oxo-1,3-dioxolan-4-yl)methyl]piperidin-4-yl}amino)-1-(2,2,2-trifluoroethyl)-1H-indol-2-yl]prop-2-yn-1-yl}amino)benzamide] | + (+ = 0 μM ≤ SC150 < 0.05 μM)
COCCn1cc(-c2ccc(NCC#Cc3cc4c(NC5CCN(C)CC5)cccc4n3CC(F)(F)F)c(OC)c2)cn1 [Compound 510A, 2-[3-({2-methoxy-4-[1-(2-methoxyethyl)-1H-pyrazol-4-yl]phenyl}amino)prop-1-yn-1-yl]-N-(1-methylpiperidin-4-yl)-1-(2,2,2-trifluoroethyl)-1H-indol-4-amine] | + (+ = 0 μM ≤ SC150 < 0.05 μM)
CCC(=O)OC(COC)CN1CCC(Nc2cccc3c2cc(C#CCNc2ccc(C(=O)NC)cc2OC)n3CC(F)(F)F)CC1 (stereo not drawn) [Compound 657A, 1-methoxy-3-(4-{[2-(3-{[2-methoxy-4-(methylcarbamoyl)phenyl]amino}prop-1-yn-1-yl)-1-(2,2,2-trifluoroethyl)-1lH-indol-4-yl]amino}piperidin-1-yl)propan-2-yl propanoate] | + (+ = 0 μM ≤ SC150 < 0.05 μM)
CN1CCC(Nc2cccc3c2cc(C#CCNC(=O)c2cccnc2)n3CC(F)(F)F)CC1 [Compound 505A, N-(3-{4-[(1-methylpiperidin-4-yl)amino]-1-(2,2,2-trifluoroethyl)-1H-indol-2-yl}prop-2-yn-1-yl)pyridine-3-carboxamide] | +++ (+++ = 0.1 μM ≤ SC150 < 0.2 μM)
COCC(O)CN1CCC(Nc2cccc3c2cc(C#CCNc2ccc(Cl)cc2OC)n3CC(F)(F)F)CC1 (stereo not drawn) [Compound 716A, 1-{4-[(2-{3-[(4-chloro-2-methoxyphenyl)amino]prop-1-yn-1-yl}-1-(2,2,2-trifluoroethyl)-1H-indol-4-yl)amino]piperidin-1-yl}-3-methoxypropan-2-ol] | ++ (++ = 0.05 μM ≤ SC150 < 0.1 μM)
CC(=O)N1CCC(Nc2cccc3c2cc(C#CCNc2ccc(S(C)(=O)=O)cc2OCC#N)n3CC(F)(F)F)CC1 [Compound 729A, 2-{2-[(3-{4-[(1-acetylpiperidin-4-yl)amino]-1-(2,2,2-trifluoroethyl)-1H-indol-2-yl}prop-2-yn-1-yl)amino]-5-methanesulfonylphenoxy}acetonitrile] | + (+ = 0 μM ≤ SC150 < 0.05 μM)
COCC(O)CN1CCC(Nc2cccc3c2cc(C#CCNc2ccc(S(C)(=O)=O)cc2OCCF)n3CC(F)(F)F)CC1 (stereo not drawn) [Compound 625A, 1-(4-{[2-(3-{[2-(2-fluoroethoxy)-4-methanesulfonylphenyl]amino}prop-1-yn-1-yl)-1-(2,2,2-trifluoroethyl)-1H-indol-4-yl]amino}piperidin-1-yl)-3-methoxypropan-2-ol] | + (+ = 0 μM ≤ SC150 < 0.05 μM)
COc1cc(S(N)(=O)=O)ccc1NCC#Cc1cc2c(NC3CC4(COC4)C3)cccc2n1CC(F)(F)F [Compound 18A] | + (+ = 0 μM ≤ SC150 < 0.05 μM)
COc1cc(C(=O)N(C)C(C)C)ccc1NCC#Cc1cc2c(N[C@@H]3CCN(C)C[C@@H]3F)cccc2n1CC(F)(F)F [Compound 944A, 4-{[3-(4-{[(3S,4R)-3-fluoro-1-methylpiperidin-4-yl]amino}-1-(2,2,2-trifluoroethyl)-1H-indol-2-yl)prop-2-yn-1-yl]amino}-3-methoxy-N-methyl-N-(propan-2-yl)benzamide] | + (+ = 0 μM ≤ SC150 < 0.05 μM)

More lines, now with the values ahead:

SC150 (concentration of the compound required to increase the DNA binding activity by 50%) | Compound
+ (+ = 0 μM ≤ SC150 < 0.05 μM) | COCC(O)CNC(=O)c1ccc(NCC#Cc2cc3c(N[C@@H]4CCN(C)C[C@@H]4F)cccc3n2CC(F)(F)F)c(OC)c1 (stereo partly drawn) [Compound 960A]
+ (+ = 0 μM ≤ SC150 < 0.05 μM) | CCNC(=O)c1ccc(NCC#Cc2cc3c(N[C@H]4CC[C@H](N(C)CCOC)CC4)cccc3n2CC(F)(F)F)c(OC)c1 [Compound 153A, N-ethyl-3-methoxy-4-((3-(4-((4-((2-methoxyethyl)(methyl)amino)cyclohexyl)amino)-1-(2,2,2-trifluoroethyl)-1H-indol-2-yl)prop-2-yn-1-yl)amino)benzamide]
+ (+ = 0 μM ≤ SC150 < 0.05 μM) | CNC(=O)c1ccc(NCC#Cc2cc3c(NC4CCC(C#N)CC4)cccc3n2CC(F)(F)F)c(OC)c1 (stereo not drawn) [Compound 33A, 4-[(3-{4-[(4-cyanocyclohexyl)amino]-1-(2,2,2-trifluoroethyl)-1H-indol-2-yl}prop-2-yn-1-yl)amino]-3-methoxy-N-methylbenzamide]
+ (+ = 0 μM ≤ SC150 < 0.05 μM) | CCOC(=O)c1ccc(NCC#Cc2cc3c(N[C@@H]4CCN(CC)C[C@@H]4F)cccc3n2CC(F)(F)F)c(OC)c1 [Compound 823A]
+ (+ = 0 μM ≤ SC150 < 0.05 μM) | COc1cc(S(C)(=O)=O)ccc1NCC#Cc1cc2c(N[C@H]3CC[C@H](N4CCC(OC)C4)CC3)cccc2n1CC(F)(F)F (stereo partly drawn) [Compound 426A, 2-{3-[(4-methane-sulfonyl-2-methoxy-phenyl)amino]prop-1-yn-1-yl}-N-[(1R,4R)-4-(3-methoxypyrrolidin-1-yl)cyclohexyl]-1-(2,2,2-trifluoroethyl)-1H-indol-4-amine]
+ (+ = 0 μM ≤ SC150 < 0.05 μM) | COc1cc(C(=O)N2CCC(O)CC2)ccc1NCC#Cc1cc2c(NC3CCN(C)CC3)cccc2n1CC(F)(F)F [Compound 492A]
+ (+ = 0 μM ≤ SC150 < 0.05 μM) | COc1cc(C(=O)O)ccc1NCC#Cc1cc2c(NC3CCN(C4CCOCC4)CC3)cccc2n1CC(F)(F)F [Compound 724A, 3-methoxy-4-{1[3-(4-{[1-(oxan-4-yl)piperidin-4-yl]amino}-1-(2,2,2-trifluoroethyl)-1H-indol-2-yl)prop-2-yn-1-yl]amino}benzoic acid]
+ (+ = 0 μM ≤ SC150 < 0.05 μM) | COc1cc(S(=O)(=O)N2CCN(C(C)=O)CC2)ccc1NCC#Cc1cc2c(NC3CCOCC3)cccc2n1CC(F)(F)F [Compound 1001A, 1-(4-{3-methoxy-4-[(3-{4-[(oxan-4-yl)amino]-1-(2,2,2-trifluoroethyl)-1H-indol-2-yl}prop-2-yn-1-yl)amino]benzenesulfonyl}piperazin-1-yl)ethan-1-one]
+ (+ = 0 μM ≤ SC150 < 0.05 μM) | N#CCOc1cc(S(N)(=O)=O)ccc1NCC#Cc1cc2c(N[C@H]3CC[C@H](N4CCC5(CC4)COC5)CC3)cccc2n1CC(F)(F)F [Compound 379A, 3-(cyanomethoxy)-4-{[3-(4-{[(1R,4R)-4-{2-oxa-7-azaspiro[3.5]nonan-7-yl}cyclohexyl]amino}-1-(2,2,2-trifluoroethyl)-1H-indol-2-yl)prop-2-yn-1-yl]amino}benzene-1-sulfonamide]
+ (+ = 0 μM ≤ SC150 < 0.05 μM) | COc1cc(C(=O)Nc2nccs2)ccc1NCC#Cc1cc2c(N[C@@H]3CCN(C)C[C@@H]3F)cccc2n1CC(F)(F)F [Compound 917A]
+ (+ = 0 μM ≤ SC150 < 0.05 μM) | COc1cc(S(N)(=O)=O)ccc1NCC#Cc1cc2c(NC3CCN(C[C@@H]4COC(=O)O4)CC3)cccc2n1CC(F)(F)F [Compound 562A, 3-methoxy-4-[(3-{4-[(1-{[(4R)-2-oxo-1,3-dioxolan-4-yl]methyl}piperidin-4-yl)amino]-1-(2,2,2-trifluoroethyl)-1H-indol-2-yl}prop-2-yn-1-yl)amino]benzene-1-sulfonamide]
++ (++ = 0.05 μM ≤ SC150 < 0.1 μM) | COc1cc(S(N)(=O)=O)ccc1NCC#Cc1cc2c(N[C@H]3C[C@@H](C)O[C@@H](C)C3)cccc2n1CC(F)(F)F [Compound 1032A, 3-methoxy-4-{[3-(4-{[(2R,4R,6S)-2,6-dimethyloxan-4-yl]amino}-1-(2,2,2-trifluoroethyl)-1H-indol-2-yl)prop-2-yn-1-yl]amino}benzene-1-sulfonamide]
++ (++ = 0.05 μM ≤ SC150 < 0.1 μM) | COc1cc(S(C)(=O)=O)ccc1NCC#Cc1cc2c(N[C@H]3C[C@@H](C)O[C@@H](C)C3)cccc2n1CC(F)(F)F [Compound 1027A, 2-{3-[(4-methanesulfonyl-2-methoxyphenyl)amino]prop-1-yn-1-yl}-N-[(2R,4R,6S)-2,6-dimethyloxan-4-yl]-1-(2,2,2-trifluoroethyl)-1H-indol-4-amine]
